Laboratory results taken from paper PMC10065799, “High-throughput profiling of sequence recognition by tyrosine kinases and SH2 domains using bacterial peptide display” (eLife, 2023).

Biological target: T1, c-Abl kinase domain (Mus musculus, UniProt P00520)
T1 sequence (P00520 242-493 limits assumed): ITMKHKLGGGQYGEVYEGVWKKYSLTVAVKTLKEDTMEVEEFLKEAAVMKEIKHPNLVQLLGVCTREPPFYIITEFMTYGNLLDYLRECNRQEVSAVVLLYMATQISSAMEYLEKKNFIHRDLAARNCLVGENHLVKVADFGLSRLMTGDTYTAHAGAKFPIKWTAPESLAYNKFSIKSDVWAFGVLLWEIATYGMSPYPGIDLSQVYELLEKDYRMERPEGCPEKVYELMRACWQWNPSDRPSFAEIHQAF
Assay: pTyr-Var library bacterial peptide display kinase screen (enrichment scores)
Assay type: biochemical
Details: variant versus reference peptide

DRVALYVAREG [AACS_Y117_I118V]
c-Abl difference (mean log2 variant - mean log2 reference): -0.3292
